# Assay results reported in patent US20090105283A1, “3-HYDROQUINAZOLIN-4-ONE DERIVATIVES FOR USE AS STEAROYL CoA DESATURASE INHIBITORS” (priority 2007, published 2009).
# Biological target: T1, stearoyl-CoA desaturase (SCD) (Rattus norvegicus, UniProt P07308)
# T1 construct: The microsomes were quickly thawed and added to assay buffer so that a concentration of 0.4 mg/ml was achieved; from tissue
# T1 sequence (P07308 1-358): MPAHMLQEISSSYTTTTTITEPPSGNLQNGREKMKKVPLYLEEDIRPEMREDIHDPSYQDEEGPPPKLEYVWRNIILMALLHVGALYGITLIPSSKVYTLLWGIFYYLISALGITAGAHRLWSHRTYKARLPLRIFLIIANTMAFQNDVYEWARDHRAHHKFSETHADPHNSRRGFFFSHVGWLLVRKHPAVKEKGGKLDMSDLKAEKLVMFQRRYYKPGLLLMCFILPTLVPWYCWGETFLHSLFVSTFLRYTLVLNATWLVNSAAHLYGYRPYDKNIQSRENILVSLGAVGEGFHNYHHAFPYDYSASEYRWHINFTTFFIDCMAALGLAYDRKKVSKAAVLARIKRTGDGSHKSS
# Assay: SCD assay with rat liver microsomes ([3H]stearoyl CoA, adapted from Talamo and Bloch)
# Format: biochemical
# Conditions: Table 1; rat liver microsomes 0.2 mg/ml assay final, [3H]stearoyl CoA substrate, 30 min preincubation, 45 min reaction, room temperature
# Text: Male Spraque Dawley Rats were placed on regimented fasting protocol for one week to stimulate SCD enzymatic activity. 48-hour periods were alternated between feeding and fasting to induce and down-regulate SCD activity with SCD activity being induced via carbohydrate rich diet prior to liver perfusion and collection.
# The rats were anesthetized with Isoflurane inhalation anesthetic, the liver perfused with cold phosphate buffered saline (PBS), weighed, and chilled in cold homogenization buffer (250 mM sucrose, 10 mM Tris, 1 mM EDTA, pH 7.6.
# The livers were finely minced and placed in homogenization tube. 40 mL of homogenization buffer was added to the homogenization tube and the liver homogenized and centrifuged in a pre-chilled […] for 10 min at 4° C.
# Following centrifugation, the supernatant was collected and the pellet removed and discarded. The supernatant was centrifuge at 10,000 G for 35 minutes. Following centrifugation, the supernatant was collect and the pellet discarded. The supernatant was then centrifuged in a pre-chilled 45-Ti rotor at 130,000 G (41,000 RPM) for 90 minutes at 4° C.
# The supernatant was then aspirated off and the collected microsomal pellet washed in 25 mL of Glycerol PBS (1×PBS 7.4, 20% Glycerol) and resuspended in 4-5 volumes of Glycerol PBS.
# The protein concentration of the microsomal preparation was determined by BCA assay (Pierce) and the microsomes were aliquoted and stored at −80° C.
# Biobeads were ground to a smaller size in a mortar and pestle and resuspended in 3.6% TCA. The beads were then filtered through […] mesh.
# SCD was determined in the desaturase assay buffer. This assay buffer contained 0.1 M Tris buffer, pH 7.2, 2 mM NADH, 4.8 mM ATP, 0.5 mM CoA, 4.8 mM MgCl2, and 0.1% BSA.
# 1 μl of each compound of Formula I was added to an assay plate by a low volume (0.5-10 μL) multichannel pipette. A DMSO control was also prepared. The microsomes were quickly thawed and added to assay buffer so that a concentration of 0.4 mg/ml was achieved (0.2 mg/ml assay final). 50 μl of the microsome suspension in assay buffer was then added into each well in the compound assay plate, the plate was covered, and the microsomes preincubated with the compounds for 30 minutes on the orbital shaker, 50-75 rpm, at room temperature.
# The reaction mixtures were then incubated for 45 minutes on the orbital shaker at 50-75 rpm at room temperature.
# The reaction was terminated by the addition of 10 μl of 21% trichloroacetic acid (TCA) to the reaction mixture followed incubation on the orbital shaker for 30 minutes at 50-75 rpm at room temperature followed by centrifugation for 5 minutes at 3700 rpm.
# 50 μl of a 6% Bio-Bead suspension in H2O was added to the reaction mixture and the assay plate was sealed. The Bio-Bead mixture was incubated on the orbital shaker for 1 hour, 100-150 rpm at room temperature, and then the mixture was centrifuged at 2000 g for 5 minutes to pellet the Bio-Beads.
# 25 μl of the supernatant was harvested from each well and transferred to a detection plate. 100 μl of OptiPhase SuperMix scinitillation cocktail (containing sufficient NaOH to neutralize the TCA) was added and the solutions mixed by vigorous shaking (300-400 rpm) for 5 minutes at room temperature.
row,Compound,IC50 [nM]
1,"O=C(NCc1ccccc1)Nc1ccc2ncn(Cc3ccc(Cl)c(Cl)c3)c(=O)c2c1 [V, N-{3-[(3,4-dichlorophenyl)methyl]-4-oxo(3-hydroquinazolin-6-yl)}[benzylamino]carboxamide]",3180
2,"O=C(CO)Nc1ccc2c(=O)n(Cc3ccc(Cl)cc3)cnc2c1 [LXXXI, N-{3-[(4-chlorophenyl)methyl]-4-oxo(3-hydroquinazolin-7-yl)}-2-hydroxyacetamide]",3120
3,"O=C(CCC(=O)c1ccccc1)Nc1ccc2ncn(Cc3ccc(Cl)c(Cl)c3)c(=O)c2c1 [XLII, N-{3-[(3,4-dichlorophenyl)methyl]-4-oxo(3-hydroquinazolin-6-yl)}-4-oxo-4-phenylbutanamide]",2170
4,"O=C(COc1cccnc1)Nc1ccc2c(=O)n(Cc3ccc(Cl)c(Cl)c3)cnc2c1 [LI, N-{3-[(3,4-dichlorophenyl)methyl]-4-oxo(3-hydroquinazolin-7-yl)}-2-(3-pyridyloxy)acetamide]",1450
5,"O=C(COc1cccc(F)c1)Nc1ccc2ncn(Cc3ccc(Cl)cc3)c(=O)c2c1 [XLIII, N-{3-[(4-chlorophenyl)methyl]-4-oxo(3-hydroquinazolin-6-yl)}-2-(3-fluorophenoxy)acetamide]",6400
6,"O=C(Nc1ccc2ncn(Cc3ccc(Cl)c(Cl)c3)c(=O)c2c1)Oc1ccc(Cl)cc1 [LXX, N-{3-[(3,4-dichlorophenyl)methyl]-4-oxo(3-hydroquinazolin-6-yl)}(4-chlorophenoxy)carboxamide]",3220
7,"O=C(COc1ccccc1)Nc1ccc2ncn(Cc3ccc(Br)cc3)c(=O)c2c1 [XXXVIII, N-{3-[(4-bromophenyl)methyl]-4-oxo(3-hydroquinazolin-6-yl)}-2-phenoxyacetamide]",15000
8,"O=C(Nc1ccc2ncn(Cc3ccc(Cl)c(Cl)c3)c(=O)c2c1)OCCc1ccccc1 [LXXI, N-{3-[(3,4-dichlorophenyl)methyl]-4-oxo(3-hydroquinazolin-6-yl)}(2-phenylethoxy)carboxamide]",4380
9,"O=C(COc1ccc2ccccc2c1)Nc1ccc2ncn(Cc3ccc(Cl)c(Cl)c3)c(=O)c2c1 [XXXII, N-{3-[(3,4-dichlorophenyl)methyl]-4-oxo(3-hydroquinazolin-6-yl)}-2-(2-naphthyloxy)acetamide]",2850
10,"O=C(Nc1ccc2ncn(Cc3ccc(Cl)cc3)c(=O)c2c1)c1ccc(Cn2ccnc2)o1 [LVII, N-{3-[(4-chlorophenyl)methyl]-4-oxo(3-hydroquinazolin-6-yl)}[5-(imidazolylmethyl)(2-furyl)]carboxamide]",12000
11,"O=C(CO)Nc1ccc2c(=O)n(Cc3ccc(Cl)c(Cl)c3)cnc2c1 [LXXXII, N-{3-[(3,4-dichlorophenyl)methyl]-4-oxo(3-hydroquinazolin-7-yl)}-2-hydroxyacetamide]",350
12,"O=C(Nc1ccc2c(=O)n(Cc3ccc(Cl)c(Cl)c3)cnc2c1)OCc1ccccc1 [LII, N-{3-[(3,4-dichlorophenyl)methyl]-4-oxo(3-hydroquinazolin-7-yl)}(phenylmethoxy)carboxamide]",50
13,"O=C(COc1ccccc1Cl)Nc1ccc2ncn(Cc3ccc(Cl)c(Cl)c3)c(=O)c2c1 [XXIX, N-{3-[(3,4-dichlorophenyl)methyl]-4-oxo(3-hydroquinazolin-6-yl)}-2-(2-chlorophenoxy)acetamide]",1980
14,"O=C(Nc1ccc2c(=O)n(Cc3ccc(F)c(Cl)c3)cnc2c1)OCc1cccnc1 [LXXIV, N-{3-[(3-chloro-4-fluorophenyl)methyl]-4-oxo(3-hydroquinazolin-7-yl)}(3-pyridylmethoxy)carboxamide]",120

# Same assay, conditions: Table 2 (Example 21, procedures of Example 20); rat liver microsomes, [3H]stearoyl CoA substrate
row,Compound,IC50 [nM]
1,"O=C(CO)Nc1ccc2ncn(CCCOc3ccccc3C(F)(F)F)c(=O)c2c1 [compound 45, 2-hydroxy-N-(4-oxo-3-(3-(2-(trifluoromethyl)phenoxy)propyl)-3,4-dihydroquinazolin-6-yl)acetamide]",120
2,"O=C(COc1ccccc1)Nc1ccc2ncn(Cc3ccc(Cl)cc3)c(=O)c2c1 [compound 5, N-(3-(4-chlorobenzyl)-4-oxo-3,4-dihydroquinazolin-6-yl)-2-phenoxyacetamide]",8000
3,"CC(=O)OCC(=O)Nc1ccc2ncn(Cc3ccccc3C(F)(F)F)c(=O)c2c1 [compound 28, 2-oxo-2-(4-oxo-3-(2-(trifluoromethyl)benzyl)-3,4-dihydroquinazolin-6-ylamino)ethyl acetate]",1500
4,"O=C(NCc1ccccc1)c1ccc2c(=O)n(Cc3ccc(Cl)c(Cl)c3)cnc2c1 [compound 85, N-benzyl-3-(3,4-dichlorobenzyl)-4-oxo-3,4-dihydroquinazoline-7-carboxamide]",950
5,"O=C(Nc1ccc2ncn(Cc3ccc4ccccc4c3)c(=O)c2c1)OCc1ccccc1 [compound 32, benzyl 3-(naphthalen-2-ylmethyl)-4-oxo-3,4-dihydroquinazolin-6-ylcarbamate]",720
6,"Cc1ccccc1OCC(O)Cn1cnc2ccc(NC(=O)CO)cc2c1=O (centres unmarked) [compound 76, 2-hydroxy-N-(3-(2-hydroxy-3-(o-tolyloxy)propyl)-4-oxo-3,4-dihydroquinazolin-6-yl)acetamide]",4000
7,"O=C(Nc1ccc2ncn(Cc3ccc(Cl)c(Cl)c3)c(=O)c2c1)[C@@H](O)Cc1ccccc1 [compound 97, (S)—N-(3-(3,4-dichlorobenzyl)-4-oxo-3,4-dihydroquinazolin-6-yl)-2-hydroxy-3-phenylpropanamide]",4800
8,"O=C(Nc1ccc2ncn(CCCOc3ccccc3Cl)c(=O)c2c1)OCc1ccccc1 [compound 59, benzyl 3-(3-(2-chlorophenoxy)propyl)-4-oxo-3,4-dihydroquinazolin-6-ylcarbamate]",45
9,"CC(=O)OCC(=O)Nc1ccc2ncn(Cc3ccc(F)c(C(F)(F)F)c3)c(=O)c2c1 [compound 15, 2-(3-(4-fluoro-3-(trifluoromethyl)benzyl)-4-oxo-3,4-dihydroquinazolin-6-ylamino)-2-oxoethyl acetate]",700
10,"CC(=O)OCC(=O)Nc1ccc2ncn(Cc3ccc(Cl)cc3)c(=O)c2c1 [compound 3, 2-(3-(4-chlorobenzyl)-4-oxo-3,4-dihydroquinazolin-6-ylamino)-2-oxoethyl acetate]",940
11,"O=C(CO)Nc1ccc2ncn(CCc3ccc(Cl)cc3Cl)c(=O)c2c1 [compound 39, N-(3-(2,4-dichlorophenethyl)-4-oxo-3,4-dihydroquinazolin-6-yl)-2-hydroxyacetamide]",4900
12,"CNC(=O)c1ccc2c(=O)n(Cc3ccc(Cl)cc3)cnc2c1 [compound 89, 3-(4-chlorobenzyl)-N-methyl-4-oxo-3,4-dihydroquinazoline-7-carboxamide]",7500
13,"O=C(CO)Nc1ccc2ncn(Cc3cccc(-c4ccccc4)c3)c(=O)c2c1 [compound 29, N-(3-(biphenyl-3-ylmethyl)-4-oxo-3,4-dihydroquinazolin-6-yl)-2-hydroxyacetamide]",3900
14,"O=C(CO)Nc1ccc2ncn(Cc3ccc4ccccc4c3)c(=O)c2c1 [compound 31, 2-hydroxy-N-(3-(naphthalen-2-ylmethyl)-4-oxo-3,4-dihydroquinazolin-6-yl)acetamide]",340
15,"C[C@@H](c1ccc(Cl)c(Cl)c1)n1cnc2cc(NC(=O)CO)ccc2c1=O [compound 35, (S)—N-(3-(1-(3,4-dichlorophenyl)ethyl)-4-oxo-3,4-dihydroquinazolin-7-yl)-2-hydroxyacetamide]",1800
